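Briefly, cells in 96-well plates were exposed to five compound concentrations for 48 h, and endpoints were estimated by linear interpolation. Abbreviation: GI50, concentration required for 50% inhibition of growth.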 Activity calls are given as the source filed them. Cut-off read from the data, not from the text of the source: active = GI50 up to about 1.1 µM and inactive = higher.

Among the test systems are KM-20L2; SNB-78; HOP-18; M19-MEL; DLD-1; LXFL 529; XF498; RXF 631; DMS-114.
Holding throughout (experiment): inhibition of tumour cell growth, NCI panel, 48 h

Consider `O=c1c2cc3c(cc2c2cccc4c2n1CCC4)OCO3`, for which the GI50 in the assay on KM-20L2 was 45.7 µM (inactive); with SNB-78, 68.5 µM (inactive); with HOP-18 it was 49.5 µM (inactive); in the assay on M19-MEL, 86.7 µM (inactive); in the assay on DLD-1, 26.8 µM (inactive); in the assay with LXFL 529 it was 37.5 µM (inactive).
Consider `N#CC(C(=N/NC(N)=S)/C(=N\NC(N)=S)C(C#N)c1ccccc1)c1ccccc1` (configuration not stated), for which the GI50 in the assay on XF498, with KM-20L2, with RXF 631, in the assay on SNB-78, with HOP-18 and in the assay on M19-MEL was > 10 µM (inactive) throughout. In addition, the GI50 with DMS-114, in the assay with DLD-1 and with LXFL 529 was > 10 µM (inactive) in each case.
On to `C/C(=N\NC(=S)N1CCCCCC1)c1nccnc1C`, for which the GI50 was 1.43 µM (inactive) with XF498; < 0.01 µM (active) in the assay on KM-20L2; 0.885 µM (active) in the assay on SNB-78; 0.617 µM (active) with HOP-18; 0.174 µM (active) in the assay with M19-MEL; < 0.01 µM (active) in the assay on DMS-114. Moreover, the GI50 with DLD-1 is 1.42 µM (inactive); in the assay on LXFL 529 it was < 0.01 µM (active).
`CCCCCCCCCCCCCC(=O)NCC(OCC)OCC`: the GI50 in the assay on XF498, with KM-20L2, with SNB-78, in the assay on HOP-18, in the assay with M19-MEL and in the assay with DMS-114 was > 100 µM (inactive) each time. For the same compound, the GI50 with DLD-1 and in the assay with LXFL 529 was > 100 µM (inactive) each time.
Turning to `O=C1C=C(Nc2ccccc2C(=O)c2ccccc2)c2ccccc2C1=O`, the GI50 is > 100 µM (inactive) in the assay with KM-20L2; > 100 µM (inactive) with SNB-78; > 100 µM (inactive) with HOP-18; 9.14 µM (inactive) with M19-MEL; 36.1 µM (inactive) with DMS-114; > 100 µM (inactive) with DLD-1. Also, in the assay on LXFL 529, the GI50 is > 100 µM (inactive).
Turning to `O=C1c2ccccc2N2OC3(N4CCCC4)CCCCC3C12c1ccccc1` (configuration not stated), the GI50 with XF498 was 22.4 µM (inactive); with KM-20L2, 43.5 µM (inactive); with SNB-78, 16.6 µM (inactive); in the assay on HOP-18, > 100 µM (inactive); in the assay with M19-MEL, 10.1 µM (inactive); in the assay with DMS-114, 15.2 µM (inactive). Besides, the GI50 was 20 µM (inactive) in the assay with DLD-1 and 14.5 µM (inactive) with LXFL 529.
On to `CCn1c2ccccc2c2c(-c3ccccc3)cc3c(c21)C(=O)N(c1ccccc1)C3=O`, for which the GI50 in the assay with XF498, with KM-20L2, with SNB-78, in the assay with M19-MEL, in the assay on DMS-114 and with DLD-1 was > 100 µM (inactive) throughout. Further, the GI50 in the assay with LXFL 529 is > 100 µM (inactive).
For the compound `COC(=O)C1=C(c2cc(OC)c(OC)c(OC)c2)O[C@H](c2ccc3c(c2)OCO3)[C@H]1COC(C)=O`, the GI50 in the assay on XF498 is 33.6 µM (inactive); in the assay on KM-20L2, 30.3 µM (inactive); with RXF 631 it was 42.3 µM (inactive); with SNB-78, 26.7 µM (inactive); in the assay on HOP-18, 26.7 µM (inactive); in the assay with M19-MEL it was 20.7 µM (inactive). The GI50 was 26.3 µM (inactive) in the assay on DLD-1 and 20.3 µM (inactive) in the assay with LXFL 529.
In the case of `CN1CCc2ccccc2C(C(=O)c2ccc3c(c2)OCO3)C1=O` (configuration not stated), the GI50 with XF498 was 70.8 µM (inactive); in the assay on KM-20L2 it was > 100 µM (inactive); in the assay with RXF 631 it was > 100 µM (inactive); with HOP-18, > 100 µM (inactive); in the assay with M19-MEL, > 100 µM (inactive); in the assay on DMS-114, 39.3 µM (inactive). Also, the GI50 in the assay on DLD-1 and in the assay with LXFL 529 was > 100 µM (inactive) in each case.
`CCOC(=O)C(CCCNC(=O)OC(C)(C)C)N(Cc1ccc(OC)cc1OC)C(=O)CC(=O)CP(=O)(OCC)OCC` (configuration not stated): the GI50 in the assay with KM-20L2 was > 100 µM (inactive); in the assay with RXF 631, > 100 µM (inactive); in the assay on HOP-18 it was > 100 µM (inactive); in the assay with M19-MEL, > 100 µM (inactive); with DMS-114 it was 21 µM (inactive); in the assay with DLD-1, > 100 µM (inactive). Besides, in the assay with LXFL 529, the GI50 is > 100 µM (inactive).
On to `O=C(CCc1nnc2s/c(=C\c3ccc(Cl)cc3Cl)c(=O)n12)Nc1cc(Cl)c(Cl)cc1Cl`, for which the GI50 was > 10 µM (inactive) in the assay with XF498; > 10 µM (inactive) in the assay on KM-20L2; 71.4 µM (inactive) in the assay on RXF 631; 84.1 µM (inactive) in the assay with SNB-78; > 10 µM (inactive) in the assay on HOP-18; > 10 µM (inactive) with M19-MEL. Moreover, the GI50 in the assay on DMS-114, in the assay on DLD-1 and in the assay on LXFL 529 was > 10 µM (inactive) throughout.
As to `COc1ccc(N2C(=O)/C(=C/c3ccc(N(CCC#N)CCC#N)cc3C)N=C2c2cc([N+](=O)[O-])ccc2Cl)cc1`, the GI50 with XF498 was 2.34 µM (inactive); with KM-20L2 it was 2.31 µM (inactive); in the assay with SNB-78, 6.9 µM (inactive); with HOP-18, > 100 µM (inactive); in the assay with M19-MEL, 17.1 µM (inactive); with DMS-114, 3.32 µM (inactive). Further, the GI50 with DLD-1 was 4.51 µM (inactive); with LXFL 529 it was 7.53 µM (inactive).
Consider `Cc1c2ccncc2cc2c1sc1ccncc12`, for which the GI50 in the assay with XF498 was 12.1 µM (inactive); in the assay on KM-20L2, 5.5 µM (inactive); in the assay with RXF 631 it was 2.25 µM (inactive); in the assay on SNB-78, 13 µM (inactive); in the assay with HOP-18, 7.71 µM (inactive); with M19-MEL, 3.94 µM (inactive). Further, the values for the GI50 in the assay on DMS-114, with DLD-1 and in the assay with LXFL 529 were 6.21 µM (inactive), 4.18 µM (inactive) and 6.68 µM (inactive), respectively.
In the case of `CCOC(=O)NNC(=O)NC12CC3CC(CC(C3)C1)C2`, the GI50 in the assay on XF498, in the assay on KM-20L2, in the assay on SNB-78, in the assay with HOP-18, in the assay on M19-MEL and in the assay on DMS-114 was > 100 µM (inactive) throughout. Further, the GI50 in the assay with DLD-1 and with LXFL 529 was > 100 µM (inactive) in each case.
As to `COc1ccc(S(=O)(=O)N/N=C/CN2C(=O)c3ccccc3C2=O)cc1`, the GI50 in the assay with XF498, in the assay on KM-20L2, in the assay with M19-MEL, with DLD-1 and with LXFL 529 was > 100 µM (inactive) throughout.
`CCOC(=O)C(=O)Nc1nc2ccc(C)cc2s1`: the GI50 is > 100 µM (inactive) in the assay on XF498; > 100 µM (inactive) in the assay with KM-20L2; > 100 µM (inactive) with RXF 631; 87.7 µM (inactive) with SNB-78; > 100 µM (inactive) with M19-MEL; > 100 µM (inactive) in the assay on DMS-114. The GI50 in the assay with DLD-1 and with LXFL 529 was > 100 µM (inactive) each time.
In the case of `CCOC(=O)C(C(=O)OCC)=c1sc(=C(C(=O)OCC)C(=O)OCC)s1`, the GI50 in the assay with KM-20L2, with SNB-78, in the assay on M19-MEL, with DLD-1 and in the assay on LXFL 529 was > 100 µM (inactive) throughout.
Consider `O=C(CSc1nnc(Cc2ccccc2)o1)Nc1ccc(Cl)cc1[N+](=O)[O-]`, for which the GI50 was 17.5 µM (inactive) with XF498; 22.5 µM (inactive) with KM-20L2; 20 µM (inactive) with SNB-78; 14.7 µM (inactive) in the assay on HOP-18; 17 µM (inactive) with M19-MEL; 17.1 µM (inactive) with LXFL 529.
On to `CC(=O)OCc1c(O)nc2c(c1O)-c1ccccc1CC2`, for which the GI50 with XF498 is 56.5 µM (inactive); with KM-20L2, 106 µM (inactive); with RXF 631, 69.5 µM (inactive); with HOP-18, 129 µM (inactive); with M19-MEL, 54.3 µM (inactive); in the assay with DMS-114, 67.8 µM (inactive). Moreover, the GI50 in the assay with DLD-1 was 71.9 µM (inactive); with LXFL 529 it was 60 µM (inactive).
Turning to `COc1ccc(NC(=O)c2oc3cc(O)ccc3c(=O)c2C)c([N+](=O)[O-])c1`, the GI50 with XF498, in the assay with KM-20L2, in the assay with SNB-78, in the assay on HOP-18, in the assay on M19-MEL and in the assay on DMS-114 was > 100 µM (inactive) throughout. For the same compound, the GI50 in the assay on DLD-1 and with LXFL 529 was > 100 µM (inactive) in each case.
Turning to `CC(=O)Nc1ccc(C2[C@H]3C(=O)N(c4ccc(Cc5ccc(N6C(=O)[C@@H]7ON(c8ccccc8)C(c8ccc(NC(C)=O)cc8)[C@@H]7C6=O)cc5)cc4)C(=O)[C@H]3ON2c2ccccc2)cc1` (some centres not stated), the GI50 in the assay on KM-20L2 was > 100 µM (inactive); in the assay on SNB-78, > 100 µM (inactive); in the assay on HOP-18, > 100 µM (inactive); with M19-MEL, 44.2 µM (inactive); with DMS-114, > 100 µM (inactive); in the assay with DLD-1 it was > 100 µM (inactive). For the same compound, in the assay on LXFL 529, the GI50 is > 100 µM (inactive).
On to `COc1cc2noc(-c3ccccc3)c2cc1OC`, for which the GI50 in the assay on KM-20L2 is 37.4 µM (inactive); with RXF 631, 20.4 µM (inactive); in the assay with SNB-78 it was 73.5 µM (inactive); in the assay on HOP-18, > 100 µM (inactive); with M19-MEL it was 89.5 µM (inactive); in the assay on DMS-114, 35.9 µM (inactive). The GI50 with DLD-1 was 64 µM (inactive); in the assay with LXFL 529 it was 68.4 µM (inactive).
On to `COCC1N=C(c2cc(OC)c(OC)c(OC)c2-c2cc3c(cc2C2OCCCO2)OCO3)O[C@H]1c1ccccc1` (some centres not stated), for which the GI50 with KM-20L2, with M19-MEL, in the assay with DMS-114 and with DLD-1 was > 100 µM (inactive) throughout.
For the compound `COc1ccc(C(Cc2cc(OC)c(OC)c(OC)c2)C(=O)O)cc1` (configuration not stated), the GI50 with XF498 was 40.5 µM (inactive); with KM-20L2 it was 56 µM (inactive); in the assay on RXF 631, > 100 µM (inactive); in the assay with SNB-78 it was 60.1 µM (inactive); in the assay on HOP-18, > 100 µM (inactive); in the assay on M19-MEL it was 45.7 µM (inactive). Further, the GI50 with DMS-114 is 41 µM (inactive); in the assay on DLD-1, 51.1 µM (inactive).

The values above are taken from ChEMBL document CHEMBL1201862, “PubChem BioAssay data set” (2004).
